The values below come from patent publication US10696692B2, “Amido-benzyl sulfone and sulfoxide derivates” (Forma TM, LLC, priority 2012, dated 2020).

Where two headings read alike, the source gives them in different places.

The subject of one assay is A2780 cells. The assay can be described thus: Assay 2: In-Vitro Cell Proliferation Assay (A2780 cells, SRB readout, 72 hours).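 Note: viable cells counted via sulforhodamine B staining, absorbance at 570 nm, after 72 h exposure at 37 °C, DMSO 0.1% as control, media-only background subtracted.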 It is filed as cell-based. Conditions: A2780 cells, 72 hours, SRB, read-out: Cell Proliferation (IC50).
Another assay concerns the target NAMPT (Homo sapiens (Human), UniProt P43490). As to the kind of experiment: Assay 1: Biochemical Inhibition Assay (NAMPT enzymatic reaction, NMN quantified by mass spectrometry).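 Note: recombinant His-tagged human NAMPT preincubated with compound 15 min, then reacted 30 min at rt with 1 µM NAM, 100 µM PRPP, 2.5 mM ATP, NMN product read by RapidFire MS, normalized to L-Cystathionine internal standard.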 Conditions: read-out: Biochemical (IC50).

Chain of NAMPT (P43490 whole entry): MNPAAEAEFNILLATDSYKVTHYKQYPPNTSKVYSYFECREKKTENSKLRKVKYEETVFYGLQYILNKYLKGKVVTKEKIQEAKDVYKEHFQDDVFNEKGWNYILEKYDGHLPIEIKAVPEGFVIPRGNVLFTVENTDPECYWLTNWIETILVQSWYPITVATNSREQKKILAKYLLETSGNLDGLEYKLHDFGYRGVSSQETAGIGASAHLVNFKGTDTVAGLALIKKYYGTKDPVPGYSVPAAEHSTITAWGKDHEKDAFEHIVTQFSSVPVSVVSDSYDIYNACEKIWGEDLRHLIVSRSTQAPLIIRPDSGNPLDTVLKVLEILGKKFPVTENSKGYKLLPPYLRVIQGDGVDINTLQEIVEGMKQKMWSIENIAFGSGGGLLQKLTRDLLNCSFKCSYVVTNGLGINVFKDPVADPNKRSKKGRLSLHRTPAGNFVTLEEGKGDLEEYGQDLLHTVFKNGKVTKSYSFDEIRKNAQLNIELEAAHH

Take `O=C(NCc1ccc(S(=O)(=O)N2CCC3OCCC3C2)cc1)c1ccc2nccn2c1` (stereo not drawn) [Example 146, Imidazo[1,2-a]pyridine-6-carboxylic acid 4-(hexahydro-furo[3,2-c]pyridine-5-sulfonyl)-benzylamide]: the IC50 in the assay with A2780 cells (Homo sapiens, A2780, 72 h) was 3.1 nM; at NAMPT, 12.7 nM.
The corresponding values for `C[C@@H]1CN(S(=O)(=O)c2ccc(CNC(=O)c3cc4ccncc4o3)cc2)C[C@H](C)N1C1COC1` [Example 286, N-[[4-[(3S,5R)-3,5-dimethyl-4-(oxetan-3-yl)piperazin-1-yl]sulfonylphenyl]methyl]furo [2,3-c]pyridine-2-carboxamide] are 0.488 nM and 14.5 nM.
The corresponding values for `CN1CC2CN(S(=O)(=O)c3ccc(CNC(=O)c4ccc5nccn5c4)cc3)CC(C1)O2` (racemic) [Example 142, cis-Imidazo[1,2-a]pyridine-6-carboxylic acid 4-(7-methyl-9-oxa-3,7-diaza-bicyclo[3.3.1]nonane-3-sulfonyl)-benzylamide] are 28.6 nM and 113 nM.
The corresponding values for `O=C(NCc1ccc(S(=O)(=O)N2CCC(O)CC2)cc1)c1cnc2[nH]ncc2c1` [Example 30, 1H-Pyrazolo[3,4-b]pyridine-5-carboxylic acid 4-(4-hydroxy-piperidine-1-sulfonyl)-benzylamide] are 205 nM and 178 nM.
`O=C(NCc1ccc(S(=O)(=O)C2CCCOC2)cc1)c1ccc2nccn2c1` (stereo not drawn) [Example 276, N-[(4-tetrahydropyran-3-ylsulfonylphenyl)methyl] imidazo[1,2-a]pyridine-6-carboxamide]: the IC50 turned out to be 19.9 nM in the assay on A2780 cells (Homo sapiens, A2780, 72 h) and 32.9 nM on NAMPT.
The corresponding values for `O=C(NCc1ccc(S(=O)(=O)N2CCN(C3CCCCC3)CC2)cc1)c1ccc2nccn2c1` [Example 40, Imidazo[1,2-a]pyridine-6-carboxylic acid 4-(4-cyclohexyl-piperazine-1-sulfonyl)-benzylamide] are 6.9 nM and 17.1 nM.
Turning to `O=C(NCc1ccc(S(=O)(=O)N2CCC3(CCCN3)C2)cc1)c1ccc2nccn2c1` (stereo not drawn) [Example 257, N-[[4-(1,7-diazaspiro[4.4]nonan-7-ylsulfonyl)phenyl]methyl] imidazo[1,2-a]pyridine-6-carboxamide], the IC50 in the assay with A2780 cells turned out to be 26.5 nM; at NAMPT it was 46.8 nM.
Take `O=C(NCc1ccc(S(=O)(=O)[C@H]2CCOC2)cc1)c1cnc2nccn2c1` [Example 76, Imidazo[1,2-a]pyrimidine-6-carboxylic acid 4-[(S)-(tetrahydro-furan-3-yl)sulfonyl]-benzylamide]: the IC50 in the assay with A2780 cells stood at 423 nM; at NAMPT, 9.8 nM.
For the molecule `O=C(NCc1ccc(S(=O)(=O)N2CCCC3(CCCN3)CC2)cc1)c1ccc2nccn2c1` (stereo not drawn) [Example 334, N-[[4-(1,9-diazaspiro[4.6]undecan-9-ylsulfonyl)phenyl]methyl] imidazo[1,2-a]pyridine-6-carboxamide], the IC50 in the assay with A2780 cells (Homo sapiens, A2780, 72 h) stood at 26 nM; on NAMPT, 26.7 nM.
The corresponding values for `O=C(NCc1ccc(S(=O)(=O)N2CC3CCC(C2)O3)cc1)c1cc2ccncc2o1` [Example 305, N-[[4-(8-oxa-3-azabicyclo[3.2.1]octan-3-ylsulfonyl)phenyl]methyl]furo [2,3-c]pyridine-2-carboxamide] are 17.8 nM and 41.4 nM.
For `O=C(NCc1ccc(S(=O)(=O)C2CCCOC2)cc1)c1cnc2[nH]ncc2c1` (stereo not drawn) [Example 267, N-[(4-tetrahydropyran-3-ylsulfonylphenyl)methyl]-1H-pyrazolo[3,4-b]pyridine-5-carboxamide], the IC50 with A2780 cells (Homo sapiens, A2780, 72 h) is 176 nM; on NAMPT it was 219 nM.
The corresponding values for `O=C(NCc1ccc(S(=O)(=O)C2CCCOC2)cc1)c1cnc2[nH]ncc2c1` (racemic) [Example 155, 1H-Pyrazolo[3,4-b]pyridine-5-carboxylic acid 4-(tetrahydro-pyran-3-sulfonyl)-benzylamide] are 176 nM and 219 nM.
The corresponding values for `O=C(NCc1ccc(S(=O)(=O)N2CC3COCC3C2)cc1)c1cc2ccncc2o1` (stereo not drawn) [Example 153, Furo[2,3-c]pyridine-2-carboxylic acid 4-(tetrahydro-furo[3,4-c]pyrrole-5-sulfonyl)-benzylamide] are 48.9 nM and 16.5 nM.
Consider `O=C(NCc1ccc(S(=O)(=O)N2CCC3(CCNC3=O)C2)cc1)c1cnc2[nH]ncc2c1` (stereo not drawn) [Example 282, N-[[4-[(1-oxo-2,7-diazaspiro[4.4]nonan-7-yl)sulfonyl)phenyl]methyl]-1H-pyrazolo[3,4-b]pyridine-5-carboxamide], for which the IC50 stood at 233 nM in the assay on A2780 cells (Homo sapiens, A2780, 72 h) and 101 nM on NAMPT.
As to `O=C(NCc1ccc(S(=O)(=O)N2CCC(CO)CC2)cc1)c1ccc2nccn2c1` [Example 96, Imidazo[1,2-a]pyridine-6-carboxylic acid 4-(4-hydroxymethyl-piperidine-1-sulfonyl)-benzylamide], the IC50 amounted to 9.4 nM in the assay on A2780 cells (Homo sapiens, A2780, 72 h) and 24.7 nM at NAMPT.
The corresponding values for `O=C(NCc1ccc(S(=O)(=O)N2C[C@@H]3CCO[C@@H]3C2)cc1)c1cnc2[nH]ncc2c1` (racemic) [Example 178, cis-1H-Pyrazolo[3,4-b]pyridine-5-carboxylic acid 4-(hexahydro-furo[2,3-c]pyrrole-5-sulfonyl)-benzylamide] are 172 nM and 133 nM.
For `O=C(NCc1ccc(S(=O)(=O)[C@@H]2CCOC2)cc1)c1cnc2[nH]ncc2c1` [Example 90, 1H-Pyrazolo[3,4-b]pyridine-5-carboxylic acid 4-[(R)-(tetrahydro-furan-3-yl)sulfonyl]-benzylamide], the IC50 worked out at 1800 nM with A2780 cells and 227 nM at NAMPT.
In the case of `O=C(NCc1ccc(S(=O)(=O)[C@@H]2CCOC2)cc1)c1cnc2nccn2c1` [Example 226, N-[[4-[(3R)-tetrahydrofuran-3-yl)sulfonylphenyl]methyl] imidazo[1,2-a]pyrimidine-6-carboxamide], the IC50 in the assay on A2780 cells (Homo sapiens, A2780, 72 h) stood at 457 nM; on NAMPT it was 8.88 nM.
The corresponding values for `CC(=O)N1C[C@@H]2C[C@H]1CN2S(=O)(=O)c1ccc(CNC(=O)c2ccc3nccn3c2)cc1` (racemic) [Example 163, cis-Imidazo[1,2-a]pyridine-6-carboxylic acid 4-(5-acetyl-2,5-diaza-bicyclo[2.2.1]heptane-2-sulfonyl)-benzylamide] are 58.1 nM and 81.5 nM.
The corresponding values for `CC(=O)N1CCCC(S(=O)(=O)c2ccc(CNC(=O)c3cnc4[nH]ncc4c3)cc2)C1` (stereo not drawn) [Example 347, N-[[4-[(1-acetyl-3-piperidyl)sulfonyl]phenyl]methyl]-1H-pyrazolo[3,4-b]pyridine-5-carboxamide] are 640 nM and 381 nM.
Consider `O=C(NCc1ccc(S(=O)(=O)N2CC3(CCOCC3)C2)cc1)c1cnc2[nH]ncc2c1` [Example 269, N-[[4-(7-oxa-2-azaspiro[3.5]nonan-2-ylsulfonyl)phenyl]methyl]-1H-pyrazolo[3,4-b]pyridine-5-carboxamide], for which the IC50 turned out to be 45.1 nM in the assay on A2780 cells (Homo sapiens, A2780, 72 h) and 113 nM at NAMPT.
`O=C(NCc1ccc(S(=O)(=O)N2CCC[C@H](O)C2)cc1)c1ccc2nccn2c1` [Example 54, Imidazo[1,2-a]pyridine-6-carboxylic acid 4-((S)-3-hydroxy-piperidine-1-sulfonyl)-benzylamide]: the IC50 in the assay on A2780 cells (Homo sapiens, A2780, 72 h) amounted to 11.4 nM; at NAMPT, 15.6 nM.
The corresponding values for `O=C(NCc1ccc(S(=O)(=O)N2CC3(CCOCC3)C2)cc1)c1ccc2nccn2c1` [Example 218, N-[[4-(7-oxa-2-azaspiro[3.5]nonan-2-ylsulfonyl)phenyl]methyl] imidazo[1,2-a]pyridine-6-carboxamide] are 3.45 nM and 10.3 nM.
The corresponding values for `O=C(NCc1ccc(S(=O)(=O)N2CC3CC(F)(F)CC3C2)cc1)c1cc2ccncc2o1` (stereo not drawn) [Example 297, N-[[4-[(5,5-difluoro-1,3,3a,4,6,6a-hexahydrocyclopenta[c]pyrrol-2-yl)sulfonyl]phenyl]methyl]furo [2,3-c]pyridine-2-carboxamide] are 51.2 nM and 16.6 nM.
`O=C(NCc1ccc(S(=O)(=O)N2CC3CCOC3C2)cc1)c1ccc2nccn2c1` (stereo not drawn) [Example 72, Imidazo[1,2-a]pyridine-6-carboxylic acid 4-(hexahydro-furo[2,3-c]pyrrole-5-sulfonyl)-benzylamide]: the IC50 in the assay with A2780 cells (Homo sapiens, A2780, 72 h) worked out at 5.7 nM; at NAMPT, 14.3 nM.
The corresponding values for `O=C(NCc1ccc(S(=O)(=O)N2CCC3(CCCNC3)CC2)cc1)c1ccc2nccn2c1` [Example 325, N-[[4-(2,9-diazaspiro[5.5]undecan-9-ylsulfonyl)phenyl]methyl] imidazo[1,2-a]pyridine-6-carboxamide] are 27.5 nM and 25.6 nM.
The corresponding values for `O=C(NCc1ccc(S(=O)(=O)N2CCC3(CCCN3)CC2)cc1)c1ccc2nccn2c1` [Example 321, N-[[4-(1,8-diazaspiro[4.5]decan-8-ylsulfonyl)phenyl]methyl] imidazo[1,2-a]pyridine-6-carboxamide] are 54 nM and 65.1 nM.
The corresponding values for `O=C(NCc1ccc(S(=O)(=O)[C@@H]2CCOC2)cc1)c1ccc2nccn2c1` [Example 227, N-[[4-((3R)-tetrahydrofuran-3-yl]sulfonylphenyl]methyl] imidazo[1,2-a]pyridine-6-carboxamide] are 98.4 nM and 51.3 nM.
As to `O=C(NCc1ccc(S(=O)(=O)N2C[C@@H]3C[C@H]2CO3)cc1)c1cnc2[nH]ncc2c1` (racemic) [Example 172, cis-1H-Pyrazolo[3,4-b]pyridine-5-carboxylic acid 4-(2-oxa-5-aza-bicyclo[2.2.1]heptane-5-sulfonyl)-benzylamide], the IC50 was 354 nM in the assay on A2780 cells (Homo sapiens, A2780, 72 h) and 211 nM on NAMPT.
The corresponding values for `O=C(NCc1ccc(S(=O)(=O)C2CCNCC2)cc1)c1ccc2nccn2c1` [Example 234, N-[[4-(4-piperidylsulfonyl)phenyl]methyl]imidazo[1,2-a]pyridine-6-carboxamide] are 130 nM and 90.6 nM.
